Publication PMC4740242 (Cell reports, 2016)
Each block holds one compound with its values, some of them ahead of it.

Experiments:
FGR = FGR (Homo sapiens, UniProt P09769); assay: Wild-type kinase panel, FGR; type: biochemical; settings: single-dose screen
EPHB4 = EPHB4 (Homo sapiens, UniProt P54760); assay: Wild-type kinase panel, EPHB4; type: biochemical; settings: single-dose screen
HCK = HCK (Homo sapiens, UniProt P08631); assay: Wild-type kinase panel, HCK; type: biochemical; settings: single-dose screen
MNK1 = MNK1 (Homo sapiens, UniProt Q9BUB5); assay: Wild-type kinase panel, MNK1; type: biochemical; settings: single-dose screen
ERBB2 = ERBB2 (Homo sapiens, UniProt P04626); assay: Wild-type kinase panel, ERBB2; type: biochemical; settings: single-dose screen
LCK = LCK (Homo sapiens, UniProt P06239); assay: Wild-type kinase panel, LCK; type: biochemical; settings: single-dose screen
BTK = BTK (Homo sapiens, UniProt Q06187); assay: Wild-type kinase panel, BTK; type: biochemical; settings: single-dose screen
Chain of BTK (Q06187 whole entry): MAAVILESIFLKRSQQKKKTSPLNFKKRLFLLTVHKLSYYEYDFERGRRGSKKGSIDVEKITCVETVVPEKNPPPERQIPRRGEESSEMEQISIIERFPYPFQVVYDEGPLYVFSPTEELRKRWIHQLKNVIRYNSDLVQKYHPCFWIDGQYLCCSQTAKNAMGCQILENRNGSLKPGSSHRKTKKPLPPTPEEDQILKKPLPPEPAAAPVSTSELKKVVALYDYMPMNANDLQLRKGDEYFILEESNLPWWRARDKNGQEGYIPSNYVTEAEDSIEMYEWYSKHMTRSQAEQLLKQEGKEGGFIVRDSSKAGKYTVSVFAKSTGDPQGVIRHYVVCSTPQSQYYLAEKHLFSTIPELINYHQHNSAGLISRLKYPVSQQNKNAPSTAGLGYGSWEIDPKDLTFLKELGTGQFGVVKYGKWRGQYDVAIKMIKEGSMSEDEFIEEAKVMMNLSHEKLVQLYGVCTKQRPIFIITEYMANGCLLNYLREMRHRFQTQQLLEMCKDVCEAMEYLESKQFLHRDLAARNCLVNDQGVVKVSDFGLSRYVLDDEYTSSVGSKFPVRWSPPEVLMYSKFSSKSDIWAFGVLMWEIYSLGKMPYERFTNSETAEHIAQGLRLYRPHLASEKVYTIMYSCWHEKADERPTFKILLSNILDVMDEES

ERBB4 = ERBB4 (Homo sapiens, UniProt Q15303); assay: Wild-type kinase panel, ERBB4; type: biochemical; settings: single-dose screen
Chain of ERBB4 (Q15303 26-1308): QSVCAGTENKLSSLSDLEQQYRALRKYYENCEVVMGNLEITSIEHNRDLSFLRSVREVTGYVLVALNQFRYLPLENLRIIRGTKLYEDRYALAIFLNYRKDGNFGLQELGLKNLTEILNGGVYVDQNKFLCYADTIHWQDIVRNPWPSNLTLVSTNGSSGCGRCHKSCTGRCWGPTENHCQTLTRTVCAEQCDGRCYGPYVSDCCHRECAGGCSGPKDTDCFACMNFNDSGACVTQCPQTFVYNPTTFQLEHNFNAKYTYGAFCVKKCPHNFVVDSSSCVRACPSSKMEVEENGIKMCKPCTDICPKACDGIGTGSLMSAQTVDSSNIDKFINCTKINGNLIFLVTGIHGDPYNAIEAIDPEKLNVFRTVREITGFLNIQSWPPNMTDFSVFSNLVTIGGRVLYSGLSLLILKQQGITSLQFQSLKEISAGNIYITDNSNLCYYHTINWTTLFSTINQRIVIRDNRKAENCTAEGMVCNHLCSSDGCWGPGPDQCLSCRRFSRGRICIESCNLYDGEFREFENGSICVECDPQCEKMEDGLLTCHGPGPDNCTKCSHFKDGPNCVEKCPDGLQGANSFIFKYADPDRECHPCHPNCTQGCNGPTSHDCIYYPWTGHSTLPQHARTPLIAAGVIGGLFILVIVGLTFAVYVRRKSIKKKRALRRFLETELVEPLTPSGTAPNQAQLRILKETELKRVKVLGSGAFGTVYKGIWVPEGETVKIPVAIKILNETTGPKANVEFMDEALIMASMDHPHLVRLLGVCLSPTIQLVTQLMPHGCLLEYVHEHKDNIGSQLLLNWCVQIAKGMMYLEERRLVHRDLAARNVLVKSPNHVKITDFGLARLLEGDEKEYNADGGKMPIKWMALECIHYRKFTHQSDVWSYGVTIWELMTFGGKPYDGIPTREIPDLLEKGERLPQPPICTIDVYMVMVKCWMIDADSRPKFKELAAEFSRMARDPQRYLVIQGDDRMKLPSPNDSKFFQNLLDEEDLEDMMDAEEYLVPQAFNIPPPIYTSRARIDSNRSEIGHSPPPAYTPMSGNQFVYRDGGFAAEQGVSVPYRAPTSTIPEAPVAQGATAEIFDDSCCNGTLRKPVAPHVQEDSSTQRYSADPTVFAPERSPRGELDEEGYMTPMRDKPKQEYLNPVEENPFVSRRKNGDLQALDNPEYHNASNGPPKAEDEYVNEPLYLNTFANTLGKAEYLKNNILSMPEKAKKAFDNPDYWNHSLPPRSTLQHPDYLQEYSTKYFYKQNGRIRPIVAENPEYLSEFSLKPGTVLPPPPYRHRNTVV

C-SRC = C-SRC (Homo sapiens, UniProt P12931); assay: Wild-type kinase panel, C-SRC; type: biochemical; settings: single-dose screen
EPHA6 = EPHA6 (Homo sapiens, UniProt Q9UF33); assay: Wild-type kinase panel, EPHA6; type: biochemical; settings: single-dose screen
Chain of EPHA6 (Q9UF33 23-1036): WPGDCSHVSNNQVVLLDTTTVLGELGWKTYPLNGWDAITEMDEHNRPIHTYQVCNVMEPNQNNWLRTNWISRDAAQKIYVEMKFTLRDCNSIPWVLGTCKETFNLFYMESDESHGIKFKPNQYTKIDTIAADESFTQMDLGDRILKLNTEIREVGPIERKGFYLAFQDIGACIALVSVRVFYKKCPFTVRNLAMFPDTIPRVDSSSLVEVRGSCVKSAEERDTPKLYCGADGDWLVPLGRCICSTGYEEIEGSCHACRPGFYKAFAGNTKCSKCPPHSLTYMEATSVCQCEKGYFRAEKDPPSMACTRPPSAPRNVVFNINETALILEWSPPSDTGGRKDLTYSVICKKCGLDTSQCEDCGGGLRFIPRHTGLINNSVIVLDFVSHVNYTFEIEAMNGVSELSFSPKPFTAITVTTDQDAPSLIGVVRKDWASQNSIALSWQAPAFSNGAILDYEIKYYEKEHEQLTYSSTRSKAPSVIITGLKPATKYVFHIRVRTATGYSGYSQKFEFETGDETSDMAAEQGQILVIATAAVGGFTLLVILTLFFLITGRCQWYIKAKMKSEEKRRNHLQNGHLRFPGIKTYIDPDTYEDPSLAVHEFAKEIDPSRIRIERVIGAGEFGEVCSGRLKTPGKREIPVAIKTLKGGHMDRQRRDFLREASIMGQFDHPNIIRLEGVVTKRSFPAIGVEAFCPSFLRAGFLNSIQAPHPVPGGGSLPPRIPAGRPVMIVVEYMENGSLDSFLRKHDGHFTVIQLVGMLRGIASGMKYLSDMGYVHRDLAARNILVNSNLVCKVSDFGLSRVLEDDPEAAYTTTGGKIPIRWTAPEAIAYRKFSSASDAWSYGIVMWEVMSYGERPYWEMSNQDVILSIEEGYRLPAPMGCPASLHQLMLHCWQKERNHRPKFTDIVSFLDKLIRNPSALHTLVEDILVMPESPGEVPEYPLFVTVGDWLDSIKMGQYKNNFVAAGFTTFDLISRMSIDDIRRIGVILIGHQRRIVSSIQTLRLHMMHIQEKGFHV

T674I PDGFRα = T674I PDGFRα (Homo sapiens, UniProt P16234, T674I); assay: HotSpot radiometric kinase assay, recombinant T674I PDGFRα; type: biochemical; settings: for inhibition of T674I PDGFRα: 500 nM screening concentration, 10 μM ATP
Chain of T674I PDGFRα (P16234 24-1089 T674I): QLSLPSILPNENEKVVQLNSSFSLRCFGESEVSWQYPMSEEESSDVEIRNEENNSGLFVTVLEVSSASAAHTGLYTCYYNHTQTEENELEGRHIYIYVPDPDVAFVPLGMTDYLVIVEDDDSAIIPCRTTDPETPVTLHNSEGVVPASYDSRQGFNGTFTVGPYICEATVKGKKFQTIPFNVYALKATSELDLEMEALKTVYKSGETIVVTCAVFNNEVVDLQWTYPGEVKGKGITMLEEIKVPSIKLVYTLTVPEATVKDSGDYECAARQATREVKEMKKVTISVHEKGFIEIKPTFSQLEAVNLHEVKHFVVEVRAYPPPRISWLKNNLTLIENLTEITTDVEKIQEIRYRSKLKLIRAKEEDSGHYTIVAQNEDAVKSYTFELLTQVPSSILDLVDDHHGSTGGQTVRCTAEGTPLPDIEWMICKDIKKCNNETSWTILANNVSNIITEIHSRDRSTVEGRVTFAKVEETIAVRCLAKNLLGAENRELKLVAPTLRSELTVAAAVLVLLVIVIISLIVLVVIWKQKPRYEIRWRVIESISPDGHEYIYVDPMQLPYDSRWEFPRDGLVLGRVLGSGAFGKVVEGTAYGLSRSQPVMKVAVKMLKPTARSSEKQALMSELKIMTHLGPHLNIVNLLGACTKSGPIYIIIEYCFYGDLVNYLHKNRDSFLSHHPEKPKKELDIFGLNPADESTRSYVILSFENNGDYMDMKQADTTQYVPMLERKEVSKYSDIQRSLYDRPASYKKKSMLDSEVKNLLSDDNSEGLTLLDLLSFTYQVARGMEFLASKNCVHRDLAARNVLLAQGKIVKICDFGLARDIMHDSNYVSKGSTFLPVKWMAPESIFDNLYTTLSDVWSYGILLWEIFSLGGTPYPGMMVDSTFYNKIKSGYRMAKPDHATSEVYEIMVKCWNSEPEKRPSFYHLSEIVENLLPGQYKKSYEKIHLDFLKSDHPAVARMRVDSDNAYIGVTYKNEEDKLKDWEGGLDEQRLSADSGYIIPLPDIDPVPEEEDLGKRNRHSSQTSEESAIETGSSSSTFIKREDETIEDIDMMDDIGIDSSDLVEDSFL

[1] = test system: Ba/F3 cells expressing WT FIP1L1-PDGFRα; assay: cells; settings: Mus musculus, BaF3, 24 h, read-out: IC50 cell growth/viability
[2] = test system: Ba/F3 cells expressing T674I FIP1L1-PDGFRα; assay: cells; settings: Mus musculus, BaF3, 24 h, read-out: IC50 cell growth/viability
[3] = test system: mutants of the RET tyrosine kinase; assay: HotSpot kinase assay, RET mutants; type: biochemical; settings: single-dose screen verified in dose-response
CLK3 = CLK3 (Homo sapiens, UniProt P49761); assay: Wild-type kinase panel, CLK3; type: biochemical; settings: single-dose screen
TXK = TXK (Homo sapiens, UniProt P42681); assay: Wild-type kinase panel, TXK; type: biochemical; settings: single-dose screen
RIPK2 = RIPK2 (Homo sapiens, UniProt O43353); assay: Wild-type kinase panel, RIPK2; type: biochemical; settings: single-dose screen
Chain of RIPK2 (O43353 whole entry): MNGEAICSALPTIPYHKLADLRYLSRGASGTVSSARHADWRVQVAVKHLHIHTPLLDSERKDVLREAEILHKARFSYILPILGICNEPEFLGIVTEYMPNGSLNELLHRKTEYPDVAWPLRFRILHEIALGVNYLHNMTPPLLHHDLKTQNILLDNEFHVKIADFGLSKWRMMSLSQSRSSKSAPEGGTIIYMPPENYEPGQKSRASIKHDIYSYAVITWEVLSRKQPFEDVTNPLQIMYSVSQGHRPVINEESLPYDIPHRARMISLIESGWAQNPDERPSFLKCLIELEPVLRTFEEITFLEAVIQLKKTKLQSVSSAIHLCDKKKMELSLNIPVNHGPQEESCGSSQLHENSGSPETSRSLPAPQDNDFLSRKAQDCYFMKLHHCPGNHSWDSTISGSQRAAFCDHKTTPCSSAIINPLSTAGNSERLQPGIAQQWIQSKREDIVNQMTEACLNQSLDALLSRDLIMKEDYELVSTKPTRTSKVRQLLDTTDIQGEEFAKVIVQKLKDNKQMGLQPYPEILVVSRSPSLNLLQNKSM

BLK = BLK (Homo sapiens, UniProt P51451); assay: Wild-type kinase panel, BLK; type: biochemical; settings: single-dose screen
Chain of BLK (P51451 whole entry): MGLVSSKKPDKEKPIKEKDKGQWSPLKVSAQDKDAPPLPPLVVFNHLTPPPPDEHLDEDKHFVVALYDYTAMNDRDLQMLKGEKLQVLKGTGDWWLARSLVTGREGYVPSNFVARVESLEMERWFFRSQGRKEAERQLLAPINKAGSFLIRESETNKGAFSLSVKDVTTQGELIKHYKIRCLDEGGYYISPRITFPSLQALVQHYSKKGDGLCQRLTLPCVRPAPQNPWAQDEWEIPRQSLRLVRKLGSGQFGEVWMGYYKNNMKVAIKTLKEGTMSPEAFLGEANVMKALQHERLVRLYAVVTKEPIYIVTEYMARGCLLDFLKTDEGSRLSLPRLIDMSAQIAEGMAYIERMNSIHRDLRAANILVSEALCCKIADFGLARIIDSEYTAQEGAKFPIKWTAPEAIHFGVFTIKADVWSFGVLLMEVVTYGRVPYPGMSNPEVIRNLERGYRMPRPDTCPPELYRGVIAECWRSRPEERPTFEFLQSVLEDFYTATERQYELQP

[4] = test system: T790M EGFR mutants (T790M, T790M/L858R, d746-750/T790M); settings: dose-response
JAK3 = JAK3 (Homo sapiens, UniProt P52333); assay: Wild-type kinase panel, JAK3; type: biochemical; settings: single-dose screen
LRRK2 mutants = assay: HotSpot kinase assay, LRRK2 mutants; type: biochemical; settings: single-dose screen verified in dose-response
L1196M ALK = L1196M ALK (Homo sapiens, UniProt Q9UM73, L1196M); assay: HotSpot kinase assay, L1196M ALK; type: biochemical; settings: single-dose screen verified in dose-response

Compound: CN(C)C/C=C/C(=O)Nc1cc2c(Nc3ccc(F)c(Cl)c3)ncnc2cc1O[C@H]1CCOC1 [afatinib]
- inhibition of FGR (FGR): more than 50%
- inhibition of EPHB4 (EPHB4): more than 50%
- inhibition of HCK (HCK): more than 50%
- inhibition of MNK1 (MNK1): more than 50%
- inhibition of ERBB2 (ERBB2): more than 50%
- inhibition of LCK (LCK): more than 50%
- inhibition of BTK (BTK): more than 50%
- inhibition of ERBB4 (ERBB4): more than 50%
- inhibition of C-SRC (C-SRC): more than 50%
- inhibition of EPHA6 (EPHA6): more than 50%

Compound: COc1cc2ncnc(Nc3ccc(Oc4ccccc4)cc3)c2cc1OC [compound 3]
- potency relative to compound 4 against T674I PDGFRα (T674I PDGFRα; IC50 comparison): several-fold more potent

Compound: COc1cc2ncnc(Nc3cccc(Cl)c3)c2cc1OC [compound 5]
- fold more potent than compound 7 against T674I PDGFRα (T674I PDGFRα; IC50 comparison): approximately 1.5 fold

Compound: C#Cc1cccc(Nc2ncnc3cc(OCCOC)c(OCCOC)cc23)c1 [erlotinib]
- inhibition of T674I PDGFRα (T674I PDGFRα): > 90%
- IC50 [1]: 14500 nM
- IC50 [2]: 1640 nM

Compound: Cc1ccc(Nc2nccc(N(C)c3ccc4c(C)n(C)nc4c3)n2)cc1S(N)(=O)=O [pazopanib]
- inhibition of T674I PDGFRα (T674I PDGFRα): > 90%
- IC50 [2]: 3170 nM

Compound: Cc1cc(Nc2cc(N3CCN(C)CC3)nc(Sc3ccc(NC(=O)C4CC4)cc3)n2)[nH]n1 [tozasertib]
- inhibition of RET mutants (in words) [3]: can inhibit

Compound: EGFR/ErbB2/ErbB4 Inhibitor
- inhibition of CLK3 (CLK3): more than 50%
- inhibition of TXK (TXK): more than 50%
- inhibition of RIPK2 (RIPK2): more than 50%
- inhibition of BTK (BTK): more than 50%
- inhibition of BLK (BLK): more than 50%
- apparent IC50 against all T790M EGFR kinases (in words) [4]: low nanomolar
- inhibition of ERBB4 (ERBB4): more than 50%
- inhibition of JAK3 (JAK3): more than 50%

Compound: bosutinib isomer
- inhibition of crizotinib-resistant L1196M ALK (in words) (L1196M ALK): inhibitor

Results, then the compound that gave them:

- fold more potent than compound 2 against T674I PDGFRα (T674I PDGFRα; IC50 comparison, meta vs para substituent): 2 fold
Compound: COc1cc2ncnc(Nc3cccc(O)c3)c2cc1OC [compound 1]

- fold less potent than compound 3 against T674I PDGFRα (T674I PDGFRα; IC50 comparison): ~ 2 fold
Compound: COc1cc2ncnc(Nc3ccc(O)cc3)c2cc1OC [compound 2]

- fold more potent than compound 7 against T674I PDGFRα (T674I PDGFRα; IC50 comparison): approximately 1.5 fold
Compound: COc1cc2ncnc(Nc3cccc(Br)c3)c2cc1OC [compound 6]

- inhibition of T674I PDGFRα (T674I PDGFRα): > 90%
- IC50 [2]: 144 nM
Compound: CNC(=O)c1cc(Oc2ccc(NC(=O)Nc3ccc(Cl)c(C(F)(F)F)c3)cc2)ccn1 [sorafenib]

- inhibition of T674I PDGFRα (T674I PDGFRα): > 90%
- IC50 [2]: 45.2 nM
Compound: CCN(CC)CCNC(=O)c1c(C)[nH]c(/C=C2\C(=O)Nc3ccc(F)cc32)c1C [sunitinib]

- inhibition of LRRK2 mutants (in words) (LRRK2 mutants): inhibit
Compound: Flt-3 Inhibitor

- inhibition of LRRK2 mutants (in words) (LRRK2 mutants): inhibit
Compound: Jak3 Inhibitor II
